According to US12062444B2, “Methods and compositions related to triple-negative breast cancer” (THE UNIVERSITY OF CHICAGO, priority 2017, dated 2024):
Entries after “also recorded” stand apart in the source; their conditions may differ. Where two headings read alike, the source gives them in different places.

What was measured:
GR = biological target: T1, GR (Homo sapiens, UniProt P04150); conditions: cited from earlier work
T1 sequence (P04150 1-777): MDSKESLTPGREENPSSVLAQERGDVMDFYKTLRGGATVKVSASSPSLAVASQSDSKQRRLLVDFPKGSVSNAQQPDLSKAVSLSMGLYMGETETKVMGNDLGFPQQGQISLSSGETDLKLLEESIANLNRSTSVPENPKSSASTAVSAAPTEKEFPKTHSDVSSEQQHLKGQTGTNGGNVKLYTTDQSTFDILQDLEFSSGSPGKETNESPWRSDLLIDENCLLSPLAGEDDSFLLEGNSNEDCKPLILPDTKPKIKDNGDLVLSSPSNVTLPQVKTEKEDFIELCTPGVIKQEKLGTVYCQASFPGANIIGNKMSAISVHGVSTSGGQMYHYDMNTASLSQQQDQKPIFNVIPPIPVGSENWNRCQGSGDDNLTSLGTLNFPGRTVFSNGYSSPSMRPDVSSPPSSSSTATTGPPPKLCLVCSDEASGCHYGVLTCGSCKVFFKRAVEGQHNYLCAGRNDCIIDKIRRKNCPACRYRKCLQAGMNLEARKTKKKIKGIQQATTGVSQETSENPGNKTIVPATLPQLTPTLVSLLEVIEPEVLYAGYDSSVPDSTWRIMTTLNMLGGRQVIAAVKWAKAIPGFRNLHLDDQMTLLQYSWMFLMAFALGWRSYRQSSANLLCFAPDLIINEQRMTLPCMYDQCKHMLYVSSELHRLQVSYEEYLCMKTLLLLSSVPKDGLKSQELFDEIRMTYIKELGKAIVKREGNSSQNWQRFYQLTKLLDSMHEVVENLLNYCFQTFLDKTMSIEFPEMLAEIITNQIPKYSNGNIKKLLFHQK

GR LBD = biological target: T2, GR LBD (Homo sapiens, UniProt P04150); experiment: Ligand titration assay via fluorescence polarimetry (displacement of F-Dex); type: binding; conditions: for Fit of FP dose response curve (half-maximal FP signal): log(inhibitor) vs. normalized response, FIG. 7
T2 construct: The wild-type GR-LBD (amino acid residues 522-777) was cloned into a pFASTBAC plasmid; 6X-His (TEV-cleavable) (cleaved yes); made in house; host or cells: SF9 insect cells (baculovirus, pFASTBAC)
T2 sequence (P04150 522-777): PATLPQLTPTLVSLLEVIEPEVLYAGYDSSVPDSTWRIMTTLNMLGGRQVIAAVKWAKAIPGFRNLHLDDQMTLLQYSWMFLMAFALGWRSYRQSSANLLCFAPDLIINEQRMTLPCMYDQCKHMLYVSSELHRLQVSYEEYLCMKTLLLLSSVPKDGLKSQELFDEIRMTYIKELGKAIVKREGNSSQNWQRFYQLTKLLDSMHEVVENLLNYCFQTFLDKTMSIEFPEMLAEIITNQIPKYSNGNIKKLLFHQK
Protocol: SF9 insect cells were transfected with recombinant bacmid and virus (collected after 6 days) was amplified prior to protein expression. […] GR-LBD was purified first using Ni-affinity chromatography followed by overnight dialysis with TEV protease to remove the His tag. Extensive dialysis into 20 mM TRIS pH 8.0, 500 mM NaCl, 5% glycerol, 0.1% CHAPS, 0.25 mM TCEP was performed to obtain non-ligand-bound GR LBD. […] The purified proteins were concentrated to 5 mg/ml, flash frozen in 50 ul aliquots in N2(l), and stored at −80C.
GR LBD was diluted in assay buffer (20 mM TRIS pH 7.5, 50 mM NaCl, 0.25 mM TCEP) to a concentration of 50 nM. […] Triplicate FP measurements were scaled to maximal FP and averaged for each ligand concentration.

[1] = biological target: T3, mineralocorticoid receptor (Homo sapiens, UniProt P08235); conditions: cited from earlier work
T3 sequence (P08235 1-984): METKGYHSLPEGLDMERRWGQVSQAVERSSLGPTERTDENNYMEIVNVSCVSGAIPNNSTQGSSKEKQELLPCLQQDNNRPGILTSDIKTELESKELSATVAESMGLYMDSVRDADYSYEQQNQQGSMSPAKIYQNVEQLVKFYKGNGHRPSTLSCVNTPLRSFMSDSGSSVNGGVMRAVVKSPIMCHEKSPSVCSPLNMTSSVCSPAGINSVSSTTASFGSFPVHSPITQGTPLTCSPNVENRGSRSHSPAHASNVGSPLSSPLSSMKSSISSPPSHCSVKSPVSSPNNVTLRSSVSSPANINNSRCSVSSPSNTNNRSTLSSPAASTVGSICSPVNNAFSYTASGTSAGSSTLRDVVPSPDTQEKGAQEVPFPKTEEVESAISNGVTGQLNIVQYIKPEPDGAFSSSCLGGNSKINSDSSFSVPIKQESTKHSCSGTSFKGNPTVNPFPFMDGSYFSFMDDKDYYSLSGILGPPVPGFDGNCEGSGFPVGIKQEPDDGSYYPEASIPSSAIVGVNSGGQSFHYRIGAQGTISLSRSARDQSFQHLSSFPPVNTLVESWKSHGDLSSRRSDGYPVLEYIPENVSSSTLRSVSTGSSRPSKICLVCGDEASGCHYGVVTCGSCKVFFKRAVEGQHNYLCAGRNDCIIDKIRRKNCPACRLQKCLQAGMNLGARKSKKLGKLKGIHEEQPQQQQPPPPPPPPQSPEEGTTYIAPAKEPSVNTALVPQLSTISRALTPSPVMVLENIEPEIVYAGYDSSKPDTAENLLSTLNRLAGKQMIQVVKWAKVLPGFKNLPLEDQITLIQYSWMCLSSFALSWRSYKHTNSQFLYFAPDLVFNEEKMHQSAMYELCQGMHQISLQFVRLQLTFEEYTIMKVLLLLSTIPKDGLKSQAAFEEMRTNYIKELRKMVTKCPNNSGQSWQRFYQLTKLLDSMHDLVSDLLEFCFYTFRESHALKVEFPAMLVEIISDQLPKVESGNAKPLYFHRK

[2] = system: MDA-MB-231 tumor xenograft; experiment: Murine TNBC xenograft, tumor re-growth after treatment; type: in vivo, SCID mice
Protocol: MDA-MB-231 tumors were established in the right pectoral mammary gland of n=23 five- or six-week old female SCID mice (Taconic). Tumor volume was measured by caliper and then calculated using the elliptical volume equation (43). […] Tumor volume was measured by caliper until reaching a volume of approximately 2000 mm^3 or 40 days post-treatment initiation. Tumor data were analyzed using the repeated measures ANOVA using SigmaPlot 11.2 (Systat Software), and p-values between treatment groups over time were obtained using the Holm-Sidak post-hoc test.
Next, we studied the in vivo effect of GR activity in paclitaxel-treated GR+TNBC-bearing female SCID mice (n=23). MDA-MB-231 xenograft tumors were established subcutaneously in the mammary fat pad of 6-week old female mice. […] The mice were treated daily for five days with intraperitoneally with C297 (or vehicle), one hour prior to paclitaxel. The one-hour pre-treatment of the GR modulator was intended to compete with endogenous GC (murine corticosterone and cortisol (68)) bound to the tumor cell GR LBD. The 5 sequential dosing was selected to mimic an intensive adjuvant chemotherapy schedule often used in early-stage TNBC. Following cessation of the 5d treatment, time to tumor xenograft re-growth was measured as a readout for time to relapse post-treatment (43, 46).

[3] = system: GR chromatin association in MDA-MB-231 cells; experiment: GR ChIP-sequencing and analysis; type: cell-based, human; conditions: 100 nM each, 60 minutes, normalized to vehicle
Protocol: MDA-MB-231 cells were grown to 80% confluence in 15-cm dishes in DMEM with 10% FBS, followed by 48h in DMEM supplemented with 2.5% charcoal-stripped FBS. […] Cells were cross-linked with 1% formaldehyde, quenched with glycine (final concentration of […]), and harvested. After cell lysis with ChIP lysis buffer (Magna ChIP A Chromatin Immunoprecipitation Kit, EMD Millipore), cells were sonicated to achieve the majority of DNA fragments between 200-400 bp. Input samples were preserved at -80° C. […] Following manufacturer's protocol, chromatin was eluted from GR ChIP and input samples. Library build and sequencing was performed at the University of Oregon Genomics Core facility using the NextSeq 500 sequencer. Quality control on sequences and adapter sequencing trimming was performed using Kapa Biosystems Illumina Library Quantification Kit. ChIP-seq analysis was carried out using the Galaxy platform (usegalaxy.org (111)). […] GR peaks for each treatment were normalized to its own input control sample. […] Selected GR peak locations in hg19 and GR peak maps were also individually analyzed using Integrative Genomics Viewer, IGV (Broad Institute (116)).

SUM-159-PT cells = conditions: Pac 10 nM, Dex 100 nM, C297 1 μM; 72 hours
Protocol: After compound treatment, cells were fixed in 10% trichloroacetic acid (TCA) at 4° C. overnight. […] Absorbance at λ=510 nm was measured, and relative percentage dead/alive cells was calculated based on minimal and maximal optical densities measured per plate. The experiment was performed in three biological replicates per cell line. P-values comparing the means of cell death percentages were obtained using the two-sample Student's t-test (Graphpad).

[4] = system: GR-regulated gene expression in MDA-MB-231 cells; experiment: Gene expression microarray and analysis; type: cell-based, human
Protocol: MDA-MB-231 cells were grown to 80% confluence in 15-cm dishes in DMEM with 10% FBS. […] Following compound exposure, cells were washed in PBS, and lysed in RNA lysis buffer (Qiagen) overnight at -80° C. RNA extraction, with accompanying DNase treatment, was performed using the RNeasy kit (Qiagen) following the manufacturer's protocol. […] The University of Chicago Genomics Core facility carried out the reverse transcription on the samples, followed by microarray using the Affymetrix Human U133 Plus 2.0 platform. […] A principal components analysis (PCA) was performed using the prcomp function in R (Q-mode PCA using singular value decomposition). […] Dex-regulated genes were overlapped with a list of n=5,170 differentially-expressed tumor-derived genes (in the same direction) from GR-high versus GR-low BCs (52). Ingenuity Pathway Analysis (Qiagen) of the n=462 patient-relevant and antagonist-inhibited genes was performed to obtain Activation Z-scores of the most significant Diseases and Biofunctions (cell functions).

[5] = 50 nM GR LBD, 10 nM F-Dex, ligand 0 to 4000 nM
[6] = at least 1.3 fold-change over vehicle, 100 nM each, 4, 8 and 12 hours combined

## CNCC(Cl)c1ccc(OC(C)=O)cc1.Cl (stereo not drawn) [CpdA]
GR
  Displacement of H^3-Dex in cell lysates: displace H^3-Dex in cell lysates
GR LBD; [5]
  Displacement of fluorescently-labeled Dex (F-Dex) from the GR LBD: did not displace F-Dex from the GR LBD
GR LBD; 50 nM GR LBD, 10 nM F-Dex, ligand 0 to 4000 nM, listed as Compound A
  Displacement of fluorescently-labeled Dex (F-Dex) from the GR LBD: does not bind to ligand pocket
GR LBD
  Fit of FP dose response curve (half-maximal FP signal): does not bind the GR LBD

## C[C@]12CCC(=O)C[C@@H]1CC[C@@H]1[C@@H]2CC[C@]2(C)[C@@H](O)CC[C@@H]12 [DHT, dihydrotestosterone]
GR LBD
  Displacement of fluorescently-labeled Dex (F-Dex) from the GR LBD: did not observe GC competition

## O=c1[nH]c(=O)c(Cc2cccc(C(F)(F)F)c2)c([C@H]2CC[C@H](c3ccccc3)CC2)[nH]1 [C335]
[1]
  Binding to the mineralocorticoid receptor: bind the mineralocorticoid receptor
GR LBD; [5]
  Displacement of fluorescently-labeled Dex (F-Dex) from the GR LBD: low nM affinities
GR LBD
  Fit of FP dose response curve (half-maximal FP signal): able to fit data

## C[C@]12CCC(=O)C=C1CC[C@@H]1[C@@H]2[C@@H](O)C[C@@]2(C)[C@H]1CC[C@]2(O)C(=O)CO [cortisol]
GR LBD
  Fit of FP dose response curve (half-maximal FP signal): able to fit data

## CC(=O)O[C@H]1C(=O)[C@@]2(C)[C@H]([C@H](OC(=O)c3ccccc3)[C@]3(O)C[C@H](OC(=O)[C@H](O)[C@@H](NC(=O)c4ccccc4)c4ccccc4)C(C)=C1C3(C)C)[C@]1(OC(C)=O)CO[C@@H]1C[C@@H]2O [Pac, paclitaxel]
[2]; C297 20 mg/kg/day one hour prior to pac 10 mg/kg/day, five days
  Post-treatment tumor re-growth: significantly smaller than vehicle
[2]; C297 20 mg/kg/day one hour prior to pac 10 mg/kg/day, five days, i.p.
  Time to tumor re-growth to a 6× increase of tumor volume: 27 days

## C[C@@H]1C[C@H]2[C@@H]3CCC4=CC(=O)C=C[C@]4(C)[C@@]3(F)[C@@H](O)C[C@]2(C)[C@@]1(O)C(=O)CO [Dex, dexamethasone]
[3]
  Genome-wide GR peaks: 8,448
SUM-159-PT cells
  Paclitaxel cytotoxicity (percentage cell death): dampened paclitaxel (10 nM) cytotoxicity
[4]; FIG. 9A
  Downregulated GC-mediated genes unique to Dex treatment: 41%
  Downregulated GC-mediated genes unique to Dex treatment, number: 1321
  Upregulated GC-mediated genes unique to Dex treatment: 50%
  Upregulated GC-mediated genes unique to Dex treatment, number: 1363
[4]; [6]
  Number of downregulated genes: 3,202
  Number of upregulated genes: 2,719
MDA-MB-231 cells; Pac 10 nM, Dex 100 nM, C297 1 μM, 96 hours
  Paclitaxel cytotoxicity (percentage cell death): dampened paclitaxel (10 nM) cytotoxicity

## CCOC[C@]12Cc3cnn(-c4ccc(F)cc4)c3C=C1CCN(S(=O)(=O)c1ccc(C(F)(F)F)cc1)C2 [C297]
GR LBD; [5]
  Displacement of fluorescently-labeled Dex (F-Dex) from the GR LBD: low nM affinities
GR LBD
  Fit of FP dose response curve (half-maximal FP signal): able to fit data
SUM-159-PT cells
  Paclitaxel cytotoxicity (percentage cell death): restored cytotoxic sensitivity; also recorded: modest, but significant, relative increase in paclitaxel cytotoxicity
[4]; 100 nM with 100 nM Dex
  Genes for which both GR modulators antagonized GR induction or repression by at least 25%: 3,066
[4]; C297 versus Mif, 100 nM
  Antagonized GR-regulated genes shared with the other antagonist: 87%
MDA-MB-231 cells; monotherapy, SRB assay, FIG. 8A, cell line not stated
  Cell viability with C297 treatment alone in vitro: not cytotoxic; also recorded: did not reduce cell viability
[2]; C297/Veh versus vehicle control, FIG. 8B
  Tumor re-growth with C297 monotherapy in vivo: not cytotoxic; also recorded: did not cause a significant delay in tumor re-growth
